27 compounds from patent US20190053492A1, “SUBSTITUTED PYRIDINE COMPOUNDS AS PESTICIDES” (Bayer CropScience Aktiengesellschaft, priority 2016, published 2019) can be followed below.

Where two headings read alike, the source gives them in different places.

A short description of data set [1]: log P by HPLC on reversed-phase column (C 18), EEC Directive 79/831 Annex V.A8. To be noted: 55° C.; for LOGP_HCOOH: log P (HCOOH); for chromatographic logP: reversed-phase HPLC column (C 18). The class given is physicochemical. The method, then: Temperature: 55° C. […] Called log P (HCOOH) in the table. […] Called log P (neutral) in the table.
For data set [2], the system named is Phaedon cochleariae. The experiment in a line: Phaedon cochleariae spray test. The format is in vivo. To be noted: after 7 days, Chinese cabbage leaf discs. As to the method:
Phaedon cochleariae—Spray Test
(§1) Solvent: 78.0 parts by weight of acetone • • 1.5 parts by weight of dimethylformamide
(§2) Emulsifier: alkylaryl polyglycol ether
(§3) To produce a suitable active ingredient formulation, 1 part by weight of active ingredient is dissolved with the specified parts by weight of solvent and made up with water containing an emulsifier concentration of 1000 ppm until the desired concentration is attained. To produce further test concentrations, the formulation is diluted with emulsifier-containing water.
Discs of Chinese cabbage leaves (Brassica pekinensis) are sprayed with an active ingredient formulation of the desired concentration and, after drying, populated with larvae of the mustard beetle (Phaedon cochleariae).
After 7 days, the efficacy in % is determined. 100% means that all the beetle larvae have been killed; 0% means that no beetle larvae have been killed.

Data set [3] relates to Spodoptera frugiperda. The experiment in a line: Spodoptera frugiperda spray test. The class given is in vivo. The note with it: after 7 days, maize leaf discs; for pest or weed control at 100 g/ha / pest or weed control at 500 g/ha: Spodoptera frugiperda, foliar, 168 h, read-out: efficacy (caterpillars killed). As to the method:
Spodoptera frugiperda—Spray Test
as §1, §2, §3
Leaf discs of maize (Zea mays) are sprayed with an active ingredient formulation of the desired concentration and, after drying, populated with caterpillars of the armyworm (Spodoptera frugiperda).
After 7 days, the efficacy in % is determined. 100% means that all the caterpillars have been killed; 0% means that no caterpillar has been killed.

[4] abbreviates: acidic range pH 2.7, 0.1% aqueous formic acid and acetonitrile, reversed-phase column (C 18).
[5] abbreviates: log P, neutral range, HPLC on reversed-phase column (C 18).
The mark [6] stands for this setting: acidic range at pH 2.7, 0.1% aqueous formic acid and acetonitrile, HPLC on reversed-phase column (C 18).
The mark [7] stands for this setting: pH 2.7, LC-MS acidic range, pH 2.7, 0.1% formic acid/acetonitrile, read-out: log P (acidic) / log P (HCOOH).
The mark [8] stands for this setting: pH 7.8, LC-MS neutral range, pH 7.8, ammonium hydrogencarbonate/acetonitrile, read-out: log P (neutral).
Where [9] appears, read: log P (neutral), HPLC reversed-phase column (C 18).

`N#Cc1ccc(CNC(=O)c2cc(-c3ccc(F)cc3)cc(NC(=O)C3CC3)n2)cc1` [Example I-002]: in data set [1] (setting [4]), the LOGP_HCOOH was determined as 3.24. Also, the “efficacy (beetle larvae killed)” value in data set [2] (application rate 500 g/ha) turned out to be 100%.
In data set [1] (setting [4]), `O=C(NCc1ccc(Cl)nc1)c1cc(-c2ccc(Cl)cc2)cc(NC(=O)C2CC2)n1` [Example I-024] had an LOGP_HCOOH of 3.53. Further, in data set [1] (setting [5]), the LOGP_NEUTRAL was 3.47. In data set [2] (application rate 500 g/ha), the “efficacy (beetle larvae killed)” value is 100%.
Taken in the same sequence, the figures for `N#Cc1ccc(CNC(=O)c2cc(-c3ccc(I)cc3)cc(NC(=O)C3CC3)n2)cc1` [Example I-050] were 3.87, 3.83 and 83%.
Taken in the same sequence, the figures for `CC(C)C(=O)Nc1cc(-c2ccc(C(F)(F)F)cc2)cc(C(=O)NCc2c(F)cc(C#N)cc2F)n1` [Example I-069] were 4.16, 4.05 and 83%.
On the same counts, the results for `O=C(NCc1ccc([N+](=O)[O-])cc1)c1cc(-c2ccc(C(F)(F)F)cc2)cc(NC(=O)C2CC2)n1` [Example I-084] are 3.98, 3.85 and 100%.
As to `N#Cc1ccc(CNC(=O)c2cc(-c3ccc(S(=O)(=O)C(F)(F)F)cc3)cc(NC(=O)C3CC3)n2)cn1` [Example I-097], the LOGP_HCOOH in data set [1] (setting [4]) came out at 3.24. The same compound registered an LOGP_NEUTRAL in data set [1] (setting [5]) of 3.11. Moreover, in data set [2] (application rate 500 g/ha), the “efficacy (beetle larvae killed)” value stood at 100%.
Regarding `N#Cc1ccc(CNC(=O)c2cc(-c3ccc(SC(F)F)cc3)cc(NC(=O)C3CC3)n2)cc1` [Example I-180], the LOGP_HCOOH in data set [1] (setting [6]) stood at 3.55. The compound further displayed an LOGP_NEUTRAL in data set [1] (setting [5]) of 3.46. Moreover, the “efficacy (beetle larvae killed)” value in data set [2] (application rate 100 g/ha) and in data set [2] (application rate 500 g/ha) was 100% in each case.
As for `N#Cc1ccc(CNC(=S)c2cc(-c3ccc(OC(F)(F)F)cc3)cc(NC(=S)C3CC3)n2)cc1` [Example I-181, N-(4-Cyanobenzyl)-6-[(cyclopropylcarbonothioyl)amino]-4-[4-(trifluoromethoxy)phenyl]pyridine-2-carbothioamide], the pest or weed control at 100 g/ha in data set [3] (application rate 100 g/ha) amounted to 100%. The pest or weed control at 500 g/ha in data set [3] (application rate 500 g/ha) amounted to 100%. In data set [1] (setting [6]), this compound registered an LOGP_HCOOH of 5.54. In data set [1] (setting [5]), this compound came in with an LOGP_NEUTRAL of 5.43. Further, the figures for the chromatographic logP in data set [1] (setting [7]) and in data set [1] (setting [8]) were 5.54 and 5.43, respectively.
`NS(=O)(=O)c1ccc(CNC(=O)c2cc(-c3ccc(OC(F)(F)F)cc3)cc(NC(=O)C3CC3)n2)cc1` [Example I-186]: the LOGP_HCOOH in data set [1] (setting [6]) was determined as 3.17. Also, the LOGP_NEUTRAL in data set [1] (setting [5]) came to 3.00. Further, in data set [2] (application rate 500 g/ha), the “efficacy (beetle larvae killed)” value stood at 100%.
With `O=C(NC1CCS(=O)(=O)C1)c1cc(-c2ccc(OC(F)(F)F)cc2)cc(NC(=O)C2CC2)n1` (stereo not drawn) [Example I-187], in data set [3] (application rate 500 g/ha), the “efficacy (caterpillars killed)” value stood at 83%. The compound further displayed an LOGP_HCOOH in data set [1] (setting [6]) of 3.09. In data set [1] (setting [5]), this compound yielded an LOGP_NEUTRAL of 3.00.
`N#Cc1ccc(CNC(=O)c2cc(-n3ccc(C(F)(F)C(F)(F)F)n3)cc(NC(=O)C3CC3)n2)cc1` [Example I-188, N-(4-Cyanobenzyl)-6-[(cyclopropylcarbonyl)amino]-4-[3-(pentafluoroethyl)-1H-pyrazol-1-yl]pyridine-2-carboxamide] yielded an LOGP_HCOOH in data set [1] (setting [6]) of 3.70. In data set [1] (setting [5]), this compound displayed an LOGP_NEUTRAL of 3.57. Further, the chromatographic logP in data set [1] (setting [7]) came to 3.7; in data set [1] (setting [8]) it was 3.57. For the same compound, in data set [2] (Phaedon cochleariae, foliar, 168 h, application rate 100 g/ha, read-out: efficacy (beetle larvae killed)), the pest or weed control at 100 g/ha is 100%. The pest or weed control at 500 g/ha in data set [2] (Phaedon cochleariae, foliar, 168 h, application rate 500 g/ha, read-out: efficacy (beetle larvae killed)) is 100%.
With `N#Cc1ccc(CNC(=O)c2cc(-c3ccc(C4(C(F)(F)F)CC4)cc3)cc(NC(=O)C3CC3)n2)cc1` [Example I-193], the “efficacy (caterpillars killed)” value in data set [3] (application rate 500 g/ha) amounted to 100%. Also, the LOGP_HCOOH in data set [1] (setting [6]) is 4.12. In addition, the LOGP_NEUTRAL in data set [1] (setting [5]) is listed as 3.95.
For `N#CC1CCC(CNC(=O)c2cc(-c3ccc(OC(F)(F)F)cc3)cc(NC(=O)C3CC3)n2)CC1` (stereo not drawn) [Example I-198], the “efficacy (caterpillars killed)” value in data set [3] (application rate 100 g/ha) and in data set [3] (application rate 500 g/ha) was 100% in each case. This compound came in with an LOGP_HCOOH in data set [1] (setting [6]) of 3.85. Besides, in data set [1] (setting [5]), the LOGP_NEUTRAL stood at 3.75.
`N#CCCCCCNC(=O)c1cc(-c2ccc(OC(F)(F)F)cc2)cc(NC(=O)C2CC2)n1` [Example I-200]: the “efficacy (caterpillars killed)” value in data set [3] (application rate 100 g/ha) and in data set [3] (application rate 500 g/ha) was 100% in each case. This compound also yielded an LOGP_HCOOH in data set [1] (setting [6]) of 3.59. Further, in data set [1] (setting [5]), the LOGP_NEUTRAL is reported as 3.51.
On to `N#Cc1ccc(CNC(=O)c2cc(-c3ccc(OC(F)(F)F)cc3)cc(NC(=O)C3CCCC3)n2)cc1` [Example I-207], for which the “efficacy (caterpillars killed)” value in data set [3] (application rate 500 g/ha) was 100%. In data set [1] (setting [5]), the LOGP_NEUTRAL came to 4.51.
As for `N#Cc1ccc(CNC(=O)c2cc(-c3ccc(OC(F)(F)F)cc3)cc(NC(=O)Cc3ccc([N+](=O)[O-])cc3)n2)cc1` [Example I-211], the figures for the “efficacy (caterpillars killed)” value in data set [3] (application rate 100 g/ha) and in data set [3] (application rate 500 g/ha) were 83% and 100%, respectively. The LOGP_HCOOH in data set [1] (setting [6]) is on record as 4.16. The LOGP_NEUTRAL in data set [1] (setting [5]) is recorded as 4.01.
For the compound `N#Cc1ccc(CNC(=O)c2cc(-c3ccc(OC(F)(F)F)cc3)cc(NC(=O)c3cnco3)n2)cc1` [Example I-212], the “efficacy (caterpillars killed)” value in data set [3] (application rate 500 g/ha) stood at 100%. In addition, the LOGP_HCOOH in data set [1] (setting [6]) is 3.44. The compound also displayed an LOGP_NEUTRAL in data set [1] (setting [5]) of 3.34.
On the same counts, the results for `CC(=O)N(C)c1cc(-c2ccc(OC(F)(F)F)cc2)cc(C(=O)NCc2ccc(C#N)cc2)n1` [Example I-220] are 100%, 3.39 and 3.35.
`CCN(C(=O)C(C)C)c1cc(-c2ccc(OC(F)(F)F)cc2)cc(C(=O)NCc2ccc(C#N)cc2)n1` [Example I-221]: in data set [3] (application rate 100 g/ha), the “efficacy (caterpillars killed)” value amounted to 80%. Moreover, the LOGP_HCOOH in data set [1] (setting [6]) was found to be 4.20. In data set [1] (setting [5]), this compound had an LOGP_NEUTRAL of 4.20.
As for `COC(C)C(=O)Nc1cc(-c2ccc(OC(F)(F)F)cc2)cc(C(=O)NCc2ccc(C#N)cc2)n1` (stereo not drawn) [Example I-223], in data set [3] (application rate 500 g/ha), the “efficacy (caterpillars killed)” value was determined as 100%. Moreover, in data set [1] (setting [6]), the LOGP_HCOOH was determined as 4.01. In addition, in data set [1] (setting [5]), the LOGP_NEUTRAL amounted to 3.91.
Consider `O=C(NC1(c2ccc([N+](=O)[O-])cc2)CC1)c1cc(-c2ccc(OC(F)(F)F)cc2)cc(NC(=O)C2CC2)n1` [Example I-229], for which the “efficacy (caterpillars killed)” value in data set [3] (application rate 500 g/ha) amounted to 100%. In data set [1] (setting [6]), this compound returned an LOGP_HCOOH of 4.23.
As to `COC(=O)N(Cc1ccc(C#N)cc1)C(=O)c1cc(-c2ccc(OC(F)(F)F)cc2)cc(NC(=O)C2CC2)n1` [Example I-231, Methyl (4-cyanobenzyl)({6-[(cyclopropylcarbonyl)amino]-4-[4-(trifluoromethoxy)phenyl]pyridin-2-yl}carbonyl)carbamate], the pest or weed control at 100 g/ha in data set [3] (application rate 100 g/ha) amounted to 100%. For the same compound, the pest or weed control at 500 g/ha in data set [3] (application rate 500 g/ha) was determined as 100%. Also, the LOGP_HCOOH in data set [1] (setting [6]) is given as 4.41. In data set [1] (setting [5]), this compound came in with an LOGP_NEUTRAL of 4.43. The chromatographic logP in data set [1] (setting [7]) worked out at 4.41; in data set [1] (setting [8]), 4.43.
With `N#Cc1ccc(CNC(=O)c2cc(-c3ccc(OC(F)(F)F)cc3)cc(NC(=O)C3(C(F)(F)F)CC3)n2)cc1` [Example I-242], the “efficacy (caterpillars killed)” value in data set [3] (application rate 500 g/ha) amounted to 100%. The compound further displayed an LOGP_HCOOH in data set [1] (setting [4]) of 4.57. Also, the LOGP_NEUTRAL in data set [1] (setting [9]) stood at 4.63.
Taken in the same sequence, the figures for `N#Cc1ccc(CNC(=O)c2cc(-c3ccc(OC(F)(F)F)cc3)cc(NC(=O)c3ccc(Cl)nc3)n2)cc1` [Example I-256] were 100%, 4.25 and 4.20.
On to `N#Cc1ccc(CNC(=O)c2cc(-c3ccc(OC(F)(F)F)cc3)cc(NC(=O)Cc3ccc(C(F)(F)F)cc3)n2)cc1` [Example I-260], for which the “efficacy (caterpillars killed)” value in data set [3] (application rate 100 g/ha) and in data set [3] (application rate 500 g/ha) was 100% each time. Also, in data set [1] (setting [4]), the LOGP_HCOOH turned out to be 4.68. The LOGP_NEUTRAL in data set [1] (setting [9]) is reported as 4.66.
Take `N#Cc1ccc(CNC(=O)c2cc(-c3cc(F)c(C(F)(F)C(F)(F)F)cc3Cl)cc(NC(=O)C3CC3)n2)cc1` [Example I-269]: the “efficacy (caterpillars killed)” value in data set [3] (application rate 500 g/ha) amounted to 83%. In data set [1] (setting [4]), this compound came in with an LOGP_HCOOH of 4.34.
Taken in the same sequence, the figures for `N#Cc1ccc(CNC(=O)c2cc(-c3ccc(C(F)(F)C(F)(F)F)c(Cl)c3)cc(NC(=O)C3CC3)n2)cc1` [Example I-273] were 100% and 4.45.
